From ChEMBL document CHEMBL3352711, “Discovery and Characterization of ML398, a Potent and Selective Antagonist of the D4 Receptor with in Vivo Activity” (ACS Med Chem Lett, 2014)
One block for each compound: values may come before it. Calls of active or inactive are those of the source. The rule behind the calls is not given here.

Legend:
[1] = molecular target: T1, D(4) dopamine receptor (Homo sapiens) (UniProt P21917); test: Inhibition of human dopamine D4 receptor at 10 uM
T1 sequence (whole entry): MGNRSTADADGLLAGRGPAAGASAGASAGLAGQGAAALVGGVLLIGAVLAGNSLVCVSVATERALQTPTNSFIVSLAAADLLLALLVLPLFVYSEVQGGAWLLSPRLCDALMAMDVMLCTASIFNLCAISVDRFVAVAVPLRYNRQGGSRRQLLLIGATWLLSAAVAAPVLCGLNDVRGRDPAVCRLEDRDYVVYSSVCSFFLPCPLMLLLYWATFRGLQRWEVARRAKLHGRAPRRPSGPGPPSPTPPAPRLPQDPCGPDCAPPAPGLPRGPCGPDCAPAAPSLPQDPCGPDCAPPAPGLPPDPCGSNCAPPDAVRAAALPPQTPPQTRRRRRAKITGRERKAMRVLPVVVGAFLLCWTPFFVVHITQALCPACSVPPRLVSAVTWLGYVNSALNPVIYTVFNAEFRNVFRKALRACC

D(4) dopamine receptor = molecular target: T2, D(4) dopamine receptor (Homo sapiens, UniProt P21917); test: Inhibition of human dopamine D4 receptor
T2 sequence (P21917 whole entry): T1 sequence (whole entry)

[2] = molecular target: Histamine H1 receptor (Homo sapiens) (UniProt P35367); test: Binding affinity to histamine H1 receptor (unknown origin) at 10 uM by radioligand binding assay
[3] = Drug uptake in Sprague-Dawley rat plasma at 10 mg/kg, ip after 0.25 hrs; assay type: ADME, organism-based; design: dose 10 mg/kg, route intraperitoneal
[4] = molecular target: D(1B) dopamine receptor (Homo sapiens) (UniProt P21918); test: Inhibition of human dopamine D5 receptor
[5] = Fraction unbound in human plasma; assay type: ADME, cell-free
[6] = molecular target: Sodium-dependent noradrenaline transporter (Homo sapiens) (UniProt P23975); test: Binding affinity to norepinephrine transporter (unknown origin) at 10 uM by radioligand binding assay
D(3) dopamine receptor = D(3) dopamine receptor (Homo sapiens, UniProt P35462); test: Inhibition of human dopamine D3 receptor
[7] = Fraction unbound in rat plasma; assay type: ADME, cell-free
Cytochrome P450 1A2 = molecular target: T3, Cytochrome P450 1A2 (Homo sapiens, UniProt P05177); test: Inhibition of human CYP1A2 by electrospray ionization; assay type: ADME
T3 sequence (P05177 whole entry): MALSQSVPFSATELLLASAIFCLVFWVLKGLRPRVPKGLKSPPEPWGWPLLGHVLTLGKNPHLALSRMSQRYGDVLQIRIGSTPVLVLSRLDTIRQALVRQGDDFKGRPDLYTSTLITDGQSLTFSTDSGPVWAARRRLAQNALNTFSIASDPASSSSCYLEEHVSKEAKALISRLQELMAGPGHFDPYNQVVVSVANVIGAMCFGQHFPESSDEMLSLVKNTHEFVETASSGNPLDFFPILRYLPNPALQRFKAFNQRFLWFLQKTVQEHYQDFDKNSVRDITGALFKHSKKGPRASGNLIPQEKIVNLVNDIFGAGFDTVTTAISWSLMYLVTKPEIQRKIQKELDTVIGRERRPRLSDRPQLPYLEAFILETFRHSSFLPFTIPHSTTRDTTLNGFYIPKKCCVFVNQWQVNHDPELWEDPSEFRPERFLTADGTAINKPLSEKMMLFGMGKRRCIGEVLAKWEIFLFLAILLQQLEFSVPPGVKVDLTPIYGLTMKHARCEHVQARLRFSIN

[8] = molecular target: Sigma non-opioid intracellular receptor 1 (Homo sapiens) (UniProt Q99720); test: Binding affinity to sigma 1 receptor (unknown origin) at 10 uM by radioligand binding assay
[9] = Ratio of drug level in Sprague-Dawley rat brain to plasma at 10 mg/kg, ip after 0.25 hrs; assay type: ADME, organism-based; design: dose 10 mg/kg, route intraperitoneal
[10] = molecular target: T4, Alpha-1A adrenergic receptor (Homo sapiens) (UniProt P35348); test: Binding affinity to adrenergic alpha1A receptor (unknown origin) at 10 uM by radioligand binding assay
T4 sequence (whole entry): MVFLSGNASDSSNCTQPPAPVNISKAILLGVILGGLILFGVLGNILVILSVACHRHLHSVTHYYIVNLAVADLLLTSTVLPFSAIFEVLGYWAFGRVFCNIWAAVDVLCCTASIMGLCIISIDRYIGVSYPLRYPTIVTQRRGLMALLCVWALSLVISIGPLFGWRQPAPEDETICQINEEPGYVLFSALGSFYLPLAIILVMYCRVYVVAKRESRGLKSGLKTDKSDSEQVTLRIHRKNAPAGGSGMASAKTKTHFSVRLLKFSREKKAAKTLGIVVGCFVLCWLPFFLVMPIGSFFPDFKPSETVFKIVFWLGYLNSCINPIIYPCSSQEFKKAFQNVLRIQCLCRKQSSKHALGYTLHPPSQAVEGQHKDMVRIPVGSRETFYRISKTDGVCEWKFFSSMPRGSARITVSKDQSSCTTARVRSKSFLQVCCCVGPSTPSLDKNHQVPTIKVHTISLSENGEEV

Rattus norvegicus [11] = test: Reversal of cocaine-induced hyperlocomotion in Sprague-Dawley rat at 10 mg/kg, ip; assay type: functional, organism-based; design: dose 10 mg/kg
[12] = Drug uptake in Sprague-Dawley rat brain at 10 mg/kg, ip after 0.25 hrs; assay type: ADME, organism-based; design: dose 10 mg/kg, route intraperitoneal
Cytochrome P450 3A4 = Cytochrome P450 3A4 (Homo sapiens, UniProt P08684); test: Inhibition of human CYP3A4 by electrospray ionization; assay type: ADME
[13] = molecular target: Sodium-dependent dopamine transporter (Homo sapiens) (UniProt Q01959); test: Binding affinity to dopamine transporter (unknown origin) at 10 uM by radioligand binding assay
D(2) dopamine receptor [14] = molecular target: T5, D(2) dopamine receptor (Homo sapiens, UniProt P14416); test: Inhibition of human dopamine D2S receptor
D(1A) dopamine receptor = D(1A) dopamine receptor (Homo sapiens, UniProt P21728); test: Inhibition of human dopamine D1 receptor
Cytochrome P450 2C9 = Cytochrome P450 2C9 (Homo sapiens, UniProt P11712); test: Inhibition of human CYP2C9 by electrospray ionization; assay type: ADME
Cytochrome P450 2D6 = Cytochrome P450 2D6 (Homo sapiens, UniProt P10635); test: Inhibition of human CYP2D6 by electrospray ionization; assay type: ADME
D(2) dopamine receptor [15] = molecular target: T5, D(2) dopamine receptor; test: Inhibition of human dopamine D2L receptor
D(2) dopamine receptor [16] = molecular target: T5, D(2) dopamine receptor; test: Inhibition of human dopamine D2 receptor
Rattus norvegicus [17] = test: Reversal of cocaine-induced hyperlocomotion in Sprague-Dawley rat at 3 mg/kg, ip; assay type: functional, organism-based; design: dose 3 mg/kg

T5 sequence (P14416 whole entry): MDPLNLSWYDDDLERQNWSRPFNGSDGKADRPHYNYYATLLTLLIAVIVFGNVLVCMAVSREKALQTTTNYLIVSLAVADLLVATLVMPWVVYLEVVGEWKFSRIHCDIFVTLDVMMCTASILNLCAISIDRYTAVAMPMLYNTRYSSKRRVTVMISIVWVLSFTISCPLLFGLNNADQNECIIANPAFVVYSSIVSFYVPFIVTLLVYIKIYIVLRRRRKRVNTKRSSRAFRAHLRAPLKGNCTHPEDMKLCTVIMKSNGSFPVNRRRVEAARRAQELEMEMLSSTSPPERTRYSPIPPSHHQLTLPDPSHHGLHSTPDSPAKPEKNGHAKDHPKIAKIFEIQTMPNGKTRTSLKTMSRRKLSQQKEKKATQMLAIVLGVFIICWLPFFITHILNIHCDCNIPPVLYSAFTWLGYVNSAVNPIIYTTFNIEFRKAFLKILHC
Chain of D(3) dopamine receptor (P35462 whole entry): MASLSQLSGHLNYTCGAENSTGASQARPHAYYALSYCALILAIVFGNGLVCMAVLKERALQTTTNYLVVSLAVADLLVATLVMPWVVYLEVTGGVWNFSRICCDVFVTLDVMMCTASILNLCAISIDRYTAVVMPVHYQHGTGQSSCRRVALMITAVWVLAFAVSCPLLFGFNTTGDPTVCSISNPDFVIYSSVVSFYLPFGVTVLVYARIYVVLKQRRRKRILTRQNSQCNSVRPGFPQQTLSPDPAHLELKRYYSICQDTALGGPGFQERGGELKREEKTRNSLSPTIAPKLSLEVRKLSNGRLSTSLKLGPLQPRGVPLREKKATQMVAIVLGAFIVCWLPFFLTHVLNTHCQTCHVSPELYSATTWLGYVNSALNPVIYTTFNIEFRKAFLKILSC
Chain of D(1A) dopamine receptor (P21728 whole entry): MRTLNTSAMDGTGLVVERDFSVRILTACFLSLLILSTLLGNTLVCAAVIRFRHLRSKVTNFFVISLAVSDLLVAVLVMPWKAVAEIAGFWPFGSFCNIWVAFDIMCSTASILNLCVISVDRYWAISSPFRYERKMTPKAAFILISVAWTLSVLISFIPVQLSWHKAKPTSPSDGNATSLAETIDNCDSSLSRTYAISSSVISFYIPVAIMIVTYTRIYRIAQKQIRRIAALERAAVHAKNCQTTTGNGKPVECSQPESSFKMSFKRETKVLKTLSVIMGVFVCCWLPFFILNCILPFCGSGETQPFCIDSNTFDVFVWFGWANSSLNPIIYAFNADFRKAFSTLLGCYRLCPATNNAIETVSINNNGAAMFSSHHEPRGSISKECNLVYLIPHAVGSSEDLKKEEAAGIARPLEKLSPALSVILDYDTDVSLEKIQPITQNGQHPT
Chain of D(1B) dopamine receptor (Homo sapiens) (P21918 whole entry): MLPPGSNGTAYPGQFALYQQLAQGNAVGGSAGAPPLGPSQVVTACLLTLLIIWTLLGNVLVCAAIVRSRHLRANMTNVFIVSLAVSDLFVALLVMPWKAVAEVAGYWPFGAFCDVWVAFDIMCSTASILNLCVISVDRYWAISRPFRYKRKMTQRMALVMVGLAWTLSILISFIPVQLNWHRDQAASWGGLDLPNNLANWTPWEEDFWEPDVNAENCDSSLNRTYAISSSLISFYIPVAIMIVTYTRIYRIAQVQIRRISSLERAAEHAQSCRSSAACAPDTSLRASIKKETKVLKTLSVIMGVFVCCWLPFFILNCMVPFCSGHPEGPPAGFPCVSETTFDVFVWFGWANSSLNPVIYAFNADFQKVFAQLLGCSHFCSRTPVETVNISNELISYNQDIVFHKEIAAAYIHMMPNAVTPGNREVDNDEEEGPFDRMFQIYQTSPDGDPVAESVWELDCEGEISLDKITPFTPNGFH
Chain of Cytochrome P450 2D6 (P10635 whole entry): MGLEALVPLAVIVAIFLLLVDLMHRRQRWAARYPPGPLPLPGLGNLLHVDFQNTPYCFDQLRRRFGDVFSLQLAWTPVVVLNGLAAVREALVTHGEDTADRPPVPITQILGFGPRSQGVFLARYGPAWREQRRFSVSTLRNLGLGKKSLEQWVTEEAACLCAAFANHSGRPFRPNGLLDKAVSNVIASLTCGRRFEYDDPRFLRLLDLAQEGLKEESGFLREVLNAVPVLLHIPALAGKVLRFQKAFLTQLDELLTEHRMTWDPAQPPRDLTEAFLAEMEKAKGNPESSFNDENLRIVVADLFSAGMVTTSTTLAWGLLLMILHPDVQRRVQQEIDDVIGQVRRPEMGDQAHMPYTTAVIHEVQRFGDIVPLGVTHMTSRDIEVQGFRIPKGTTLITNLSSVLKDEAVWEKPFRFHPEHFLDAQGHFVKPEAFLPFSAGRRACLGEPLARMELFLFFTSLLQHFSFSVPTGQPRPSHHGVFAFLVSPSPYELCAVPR
Chain of Cytochrome P450 2C9 (P11712 whole entry): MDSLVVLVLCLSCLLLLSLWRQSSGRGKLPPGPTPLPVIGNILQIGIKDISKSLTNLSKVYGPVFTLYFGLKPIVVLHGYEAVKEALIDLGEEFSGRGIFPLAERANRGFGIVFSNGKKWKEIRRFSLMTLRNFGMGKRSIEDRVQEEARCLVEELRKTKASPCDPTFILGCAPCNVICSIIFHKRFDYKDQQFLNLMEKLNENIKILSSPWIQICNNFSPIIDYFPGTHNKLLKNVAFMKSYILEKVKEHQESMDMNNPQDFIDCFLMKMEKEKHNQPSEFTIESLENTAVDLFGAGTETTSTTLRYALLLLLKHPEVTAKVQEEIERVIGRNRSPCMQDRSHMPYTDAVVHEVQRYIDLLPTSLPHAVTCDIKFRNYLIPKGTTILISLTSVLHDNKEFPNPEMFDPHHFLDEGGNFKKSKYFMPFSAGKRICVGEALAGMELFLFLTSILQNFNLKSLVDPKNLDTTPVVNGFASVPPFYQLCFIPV
Chain of Cytochrome P450 3A4 (P08684 whole entry): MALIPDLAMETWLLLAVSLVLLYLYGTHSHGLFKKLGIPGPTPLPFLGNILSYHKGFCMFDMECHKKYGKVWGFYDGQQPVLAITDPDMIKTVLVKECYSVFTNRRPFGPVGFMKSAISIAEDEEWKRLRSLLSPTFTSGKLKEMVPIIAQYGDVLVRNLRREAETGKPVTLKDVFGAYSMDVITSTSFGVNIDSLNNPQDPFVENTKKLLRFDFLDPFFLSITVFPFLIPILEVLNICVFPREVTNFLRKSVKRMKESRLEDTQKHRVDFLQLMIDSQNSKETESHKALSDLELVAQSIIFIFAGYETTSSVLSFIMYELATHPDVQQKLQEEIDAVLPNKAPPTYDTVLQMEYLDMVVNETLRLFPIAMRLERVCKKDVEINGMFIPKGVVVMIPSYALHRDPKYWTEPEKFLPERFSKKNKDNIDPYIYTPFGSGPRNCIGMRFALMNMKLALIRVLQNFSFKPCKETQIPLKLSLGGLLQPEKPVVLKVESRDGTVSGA
Chain of Histamine H1 receptor (Homo sapiens) (P35367 whole entry): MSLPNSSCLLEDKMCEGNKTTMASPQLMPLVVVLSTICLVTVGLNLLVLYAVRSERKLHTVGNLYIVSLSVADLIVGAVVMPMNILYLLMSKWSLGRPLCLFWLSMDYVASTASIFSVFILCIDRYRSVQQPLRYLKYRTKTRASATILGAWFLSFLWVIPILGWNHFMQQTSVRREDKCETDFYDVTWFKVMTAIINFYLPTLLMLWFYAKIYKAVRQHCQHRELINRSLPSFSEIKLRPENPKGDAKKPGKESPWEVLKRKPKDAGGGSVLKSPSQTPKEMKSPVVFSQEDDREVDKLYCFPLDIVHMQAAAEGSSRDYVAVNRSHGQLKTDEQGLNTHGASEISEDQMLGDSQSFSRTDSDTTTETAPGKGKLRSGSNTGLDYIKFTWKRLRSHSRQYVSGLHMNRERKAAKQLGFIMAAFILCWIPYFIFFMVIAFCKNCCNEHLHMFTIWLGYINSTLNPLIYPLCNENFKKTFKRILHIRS
Chain of Sigma non-opioid intracellular receptor 1 (Homo sapiens) (Q99720 whole entry): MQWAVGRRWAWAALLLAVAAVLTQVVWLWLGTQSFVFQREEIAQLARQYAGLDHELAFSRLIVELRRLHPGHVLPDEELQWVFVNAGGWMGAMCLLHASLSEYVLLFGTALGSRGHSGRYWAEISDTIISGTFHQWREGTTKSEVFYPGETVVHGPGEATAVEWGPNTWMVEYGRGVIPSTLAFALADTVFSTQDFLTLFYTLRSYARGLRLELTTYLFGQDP
Chain of Sodium-dependent noradrenaline transporter (Homo sapiens) (P23975 whole entry): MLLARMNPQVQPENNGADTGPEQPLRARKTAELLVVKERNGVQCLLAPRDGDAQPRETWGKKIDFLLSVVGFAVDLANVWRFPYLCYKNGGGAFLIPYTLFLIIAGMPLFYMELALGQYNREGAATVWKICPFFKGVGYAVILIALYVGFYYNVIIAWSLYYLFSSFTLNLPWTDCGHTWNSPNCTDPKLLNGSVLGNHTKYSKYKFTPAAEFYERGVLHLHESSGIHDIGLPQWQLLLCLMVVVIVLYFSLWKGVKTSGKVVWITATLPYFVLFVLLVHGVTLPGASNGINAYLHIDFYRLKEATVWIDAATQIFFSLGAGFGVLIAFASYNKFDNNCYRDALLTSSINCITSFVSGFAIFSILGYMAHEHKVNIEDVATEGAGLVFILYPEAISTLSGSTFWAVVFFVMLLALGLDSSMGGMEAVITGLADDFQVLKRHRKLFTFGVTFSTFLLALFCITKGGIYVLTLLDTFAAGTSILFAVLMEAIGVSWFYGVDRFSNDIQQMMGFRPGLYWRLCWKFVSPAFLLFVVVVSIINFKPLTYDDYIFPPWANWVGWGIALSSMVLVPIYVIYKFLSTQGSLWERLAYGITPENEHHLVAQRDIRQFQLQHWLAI

SMILES: Cc1ccccc1CN1CCOC(CCc2ccccc2)C1 (racemic)
- inhibition [1]: 54%
- IC50 (D(4) dopamine receptor): 3.68 µM
- Ki (D(4) dopamine receptor): 1.02 µM

SMILES: c1ccc(CCC2CN(c3ccccc3)CCO2)cc1 (racemic)
- inhibition [1]: 5%

SMILES: Cn1c(N2CCOC(CCc3ccccc3)C2)nc2ccccc21 (racemic)
- inhibition [1]: 17%

SMILES: c1ccc(CCC2CN(Cc3ccncc3)CCO2)cc1 (racemic)
- inhibition [1]: 13%

SMILES: c1ccc(CC[C@@H]2CN(Cc3nc4ccccc4[nH]3)CCO2)cc1
- IC50 (D(2) dopamine receptor [16]): > 100 µM
- Ki (D(2) dopamine receptor [16]): > 100 µM
- concentration at 0.25 h [3]: 1940 nM
- fraction unbound [5]: 0.012
- IC50 (D(3) dopamine receptor): 46.2 µM
- Ki (D(3) dopamine receptor): 15.7 µM
- fraction unbound [7]: 0.133
- Activity (Rattus norvegicus [17]): inactive
- IC50 (Cytochrome P450 1A2): 13.1 µM
- Kp at 0.25 h [9]: 1.8
- Activity (Rattus norvegicus [11]): inactive
- concentration at 0.25 h [12]: 3560 nM
- IC50 (Cytochrome P450 3A4): 15.6 µM
- IC50 (D(4) dopamine receptor): 0.18 µM
- Ki (D(4) dopamine receptor): 0.07 µM
- IC50 (D(1A) dopamine receptor): > 100 µM
- Ki (D(1A) dopamine receptor): > 100 µM
- IC50 (Cytochrome P450 2C9): 4.8 µM
- IC50 (Cytochrome P450 2D6): 12 µM

SMILES: c1ccc(CC[C@H]2CN(Cc3nc4ccccc4[nH]3)CCO2)cc1
- IC50 (D(2) dopamine receptor [16]): > 100 µM
- Ki (D(2) dopamine receptor [16]): > 100 µM
- IC50 (D(3) dopamine receptor): 76.4 µM
- Ki (D(3) dopamine receptor): 25.9 µM
- IC50 (D(4) dopamine receptor): > 100 µM
- Ki (D(4) dopamine receptor): > 100 µM
- IC50 (D(1A) dopamine receptor): > 100 µM
- Ki (D(1A) dopamine receptor): > 100 µM

SMILES: Fc1cccc(F)c1CN1CCOC(CCc2ccccc2)C1 (racemic)
- inhibition [1]: 51%
- IC50 (D(4) dopamine receptor): 3.88 µM
- Ki (D(4) dopamine receptor): 1.07 µM

SMILES: c1ccc(CCC2CN(Cc3nc4ccccc4[nH]3)CCO2)cc1 (racemic)
- IC50 (D(2) dopamine receptor [16]): > 100 µM
- Ki (D(2) dopamine receptor [16]): > 100 µM
- IC50 (D(3) dopamine receptor): 31.8 µM
- Ki (D(3) dopamine receptor): 10.8 µM
- IC50 (D(4) dopamine receptor): 0.36 µM
- Ki (D(4) dopamine receptor): 0.14 µM
- IC50 (D(1A) dopamine receptor): > 100 µM
- Ki (D(1A) dopamine receptor): > 100 µM

SMILES: c1ccc(CCC2CN(Cc3ccccn3)CCO2)cc1 (racemic)
- inhibition [1]: 23%

SMILES: O=C(Nc1ccc(F)cc1)N1CCOC(CCc2ccccc2)C1 (racemic)
- inhibition [1]: 5%

SMILES: Cc1ccc(C(=O)N2CCOC(CCc3ccccc3)C2)cc1 (racemic)
- inhibition [1]: 17%

SMILES: c1ccc(CCC2CN(Cc3cccnc3)CCO2)cc1 (racemic)
- inhibition [1]: 35%

SMILES: O=S(=O)(c1ccccc1)N1CCOC(CCc2ccccc2)C1 (racemic)
- inhibition [1]: 2%

Further lines, with some results ahead:

- Activity [2]: 93%
- concentration at 0.25 h [3]: 482 nM
- INH [4]: > 20 µM
- fraction unbound [5]: 0.061
- Activity [6]: 68%
- INH (D(3) dopamine receptor): > 20 µM
- fraction unbound [7]: 0.039
- IC50 (Cytochrome P450 1A2): > 30 µM
- Activity [8]: 99%
- Kp at 0.25 h [9]: 2
- inhibition [1]: 96%
- Activity [10]: 77%
- concentration at 0.25 h [12]: 987 nM
- IC50 (Cytochrome P450 3A4): > 30 µM
- Activity [13]: 72%
- INH (D(2) dopamine receptor [14]): > 20 µM
- IC50 (D(4) dopamine receptor): 0.13 µM
- Ki (D(4) dopamine receptor): 0.036 µM
- INH (D(1A) dopamine receptor): > 20 µM
- IC50 (Cytochrome P450 2C9): > 30 µM
- IC50 (Cytochrome P450 2D6): 18 µM
- INH (D(2) dopamine receptor [15]): > 20 µM
SMILES: Clc1ccc(CN2CCO[C@H](CCc3ccccc3)C2)cc1
- Activity (Rattus norvegicus [11]): Active

- INH [4]: > 20 µM
- IC50 (D(3) dopamine receptor): 8.17 µM
- Ki (D(3) dopamine receptor): 2.77 µM
- inhibition [1]: 96%
- INH (D(2) dopamine receptor [14]): > 20 µM
- IC50 (D(4) dopamine receptor): 0.23 µM
- Ki (D(4) dopamine receptor): 0.065 µM
- INH (D(1A) dopamine receptor): > 20 µM
- Ki (D(2) dopamine receptor [15]): 5.5 µM
SMILES: FC(F)(F)Oc1ccc(CN2CCO[C@H](CCc3ccccc3)C2)cc1

- inhibition [1]: 74%
- IC50 (D(4) dopamine receptor): 1.48 µM
- Ki (D(4) dopamine receptor): 0.41 µM
SMILES: c1ccc(CCC2CN(Cc3ccccc3)CCO2)cc1 (racemic)

- inhibition [1]: 88%
- IC50 (D(4) dopamine receptor): 0.39 µM
- Ki (D(4) dopamine receptor): 0.11 µM
SMILES: FC(F)(F)Oc1cccc(CN2CCOC(CCc3ccccc3)C2)c1 (racemic)

- INH [4]: > 20 µM
- IC50 (D(3) dopamine receptor): 8.17 µM
- Ki (D(3) dopamine receptor): 2.77 µM
- inhibition [1]: 98%
- INH (D(2) dopamine receptor [14]): > 20 µM
- IC50 (D(4) dopamine receptor): 0.17 µM
- Ki (D(4) dopamine receptor): 0.046 µM
- INH (D(1A) dopamine receptor): > 20 µM
- IC50 (D(2) dopamine receptor [15]): 16.5 µM
SMILES: COc1ccc(CN2CCOC(CCc3ccccc3)C2)cc1 (racemic)

- INH [4]: > 20 µM
- IC50 (D(3) dopamine receptor): 8.17 µM
- Ki (D(3) dopamine receptor): 2.77 µM
- inhibition [1]: 94%
- INH (D(2) dopamine receptor [14]): > 20 µM
- IC50 (D(4) dopamine receptor): 0.16 µM
- Ki (D(4) dopamine receptor): 0.043 µM
- INH (D(1A) dopamine receptor): > 20 µM
- Ki (D(2) dopamine receptor [15]): 5.5 µM
SMILES: FC(F)(F)Oc1ccc(CN2CCOC(CCc3ccccc3)C2)cc1 (racemic)

- INH [4]: > 20 µM
- INH (D(3) dopamine receptor): > 20 µM
- inhibition [1]: 97%
- INH (D(2) dopamine receptor [14]): > 20 µM
- IC50 (D(4) dopamine receptor): 0.29 µM
- Ki (D(4) dopamine receptor): 0.081 µM
- INH (D(1A) dopamine receptor): > 20 µM
- INH (D(2) dopamine receptor [15]): > 20 µM
SMILES: Clc1ccc(CN2CCOC(CCc3ccccc3)C2)cc1 (racemic)

- inhibition [1]: 88%
- IC50 (D(4) dopamine receptor): 1.14 µM
- Ki (D(4) dopamine receptor): 0.32 µM
SMILES: Fc1ccc(CN2CCOC(CCc3ccccc3)C2)cc1 (racemic)
